Results published in BindingDB's records for doi:10.7270/Q2222S6W (University of Pittsburgh, 2007).
Counter-ions that a name gives are not always drawn.

Target: Genome polyprotein (West Nile virus, UniProt P06935)
Assay: inhibitors of WNV NS2B-NS3 protease, dose response, biochemical, confirmation (AID 653)

Genome polyprotein, sequence (P06935 1371-1501 limits assumed): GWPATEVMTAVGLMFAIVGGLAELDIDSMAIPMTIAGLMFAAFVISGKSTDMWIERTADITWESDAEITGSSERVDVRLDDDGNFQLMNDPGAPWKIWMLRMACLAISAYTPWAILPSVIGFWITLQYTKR
Genome polyprotein, sequence (P06935 1502-2120 limits assumed): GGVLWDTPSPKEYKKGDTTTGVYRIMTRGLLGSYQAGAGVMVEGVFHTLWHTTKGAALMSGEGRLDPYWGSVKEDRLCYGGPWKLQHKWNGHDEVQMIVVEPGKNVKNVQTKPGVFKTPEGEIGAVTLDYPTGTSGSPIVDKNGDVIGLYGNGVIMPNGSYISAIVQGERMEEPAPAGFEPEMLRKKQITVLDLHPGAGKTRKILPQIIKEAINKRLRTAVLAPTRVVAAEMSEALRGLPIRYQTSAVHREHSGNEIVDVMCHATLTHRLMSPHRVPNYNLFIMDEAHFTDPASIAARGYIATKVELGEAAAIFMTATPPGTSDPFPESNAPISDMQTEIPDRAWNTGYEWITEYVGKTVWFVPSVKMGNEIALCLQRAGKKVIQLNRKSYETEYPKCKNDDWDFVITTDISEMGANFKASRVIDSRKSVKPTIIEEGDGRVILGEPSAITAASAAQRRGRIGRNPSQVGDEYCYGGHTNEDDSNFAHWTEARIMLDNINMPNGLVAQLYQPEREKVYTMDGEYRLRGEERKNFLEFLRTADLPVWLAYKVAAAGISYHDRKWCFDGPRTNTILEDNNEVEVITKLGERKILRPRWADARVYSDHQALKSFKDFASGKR

IC50 [µM] | SMILES
> 50 | CCN1CCN(C(=O)C2c3cc(OC)c(OC)cc3C(=O)N3CCc4ccccc4C23)CC1 (configuration not stated) [13-(4-ethylpiperazin-1-yl)carbonyl-10,11-dimethoxy-5,6,13,13a-tetrahydroisoquinolino[2,1-b]isoquinolin-8-one]
> 50 | COc1ccc2[nH]c(C(=O)O)c(CCNC(C)=O)c2c1 [3-[2-(acetylamino)ethyl]-5-methoxy-1H-indole-2-carboxylic acid]
> 50 | COC(=O)c1c(NC(=O)C2CC2)sc2c1CCCC2 [2-(cyclopropanecarbonylamino)-4,5,6,7-tetrahydrobenzothiophene-3-carboxylic acid methyl ester]
> 50 | CCCn1c(SCC(=O)Nc2ccc3c(c2)OCCO3)nnc1-c1ccco1 [MLS000073448]
> 50 | COc1ccc2nc(NC(=O)CSc3nc4cccnc4n3C)sc2c1 [MLS000072990]
> 50 | C=CCn1c(SCC(=O)OC)nc2sc3c(c2c1=O)CCN(C)C3 [2-[(3-allyl-4-keto-7-methyl-6,8-dihydro-5H-pyrido[2,3]thieno[2,4-b]pyrimidin-2-yl)thio]acetic acid methyl ester]
> 50 | CC(C)n1c(-c2cccnc2)nc2cnccc21 [1-isopropyl-2-(3-pyridyl)imidazo[4,5-c]pyridine]
> 50 | CCn1nc(C(=O)O)c(=O)c2cc3c(cc21)OCO3 [CINOXACIN]
> 50 | COc1cccc(CNC(=O)C2CCN(S(=O)(=O)c3ccc4c(c3)CCC(=O)N4)CC2)c1 [1-[(2-keto-3,4-dihydro-1H-quinolin-6-yl)sulfonyl]-N-m-anisyl-isonipecotamide]
> 50 | CCC(=O)N1CCc2cc(Br)cc(S(=O)(=O)CC(=O)OC)c21 [2-(5-bromo-1-propionyl-indolin-7-yl)sulfonylacetic acid methyl ester]
38.6 | CCS(=O)(=O)N1Cc2ccccc2CC1C(=O)N1CCN(c2cccc(C)c2C)CC1 (configuration not stated) [MLS000053522]
34.1 | COc1ccc(NC=C2C(=O)CCCC2=O)cc1 [2-[[(4-methoxyphenyl)amino]methylidene]cyclohexane-1,3-dione]
> 50 | Cc1cnc(NC(=O)C(C)N2C(=O)C3CC=CCC3C2=O)s1 (configuration not stated) [2-(1,3-diketo-3a,4,7,7a-tetrahydroisoindol-2-yl)-N-(5-methylthiazol-2-yl)propionamide]

More lines, now with the values behind:

SMILES | IC50 [µM]
COP(=O)(OC)C(O)C(Cl)(Cl)Cl (stereo not drawn) [(+-)-Trichlorfon] | > 50
CCSc1nnc(NC(=O)NCC(F)(F)F)s1 [1-(5-ethylsulfanyl-1,3,4-thiadiazol-2-yl)-3-(2,2,2-trifluoroethyl)urea] | > 50
COc1ccc(/C=C(/C#N)c2cccnc2)cc1OC [(E)-3-(3,4-dimethoxyphenyl)-2-(3-pyridinyl)-2-propenenitrile] | > 50
Cc1ccc(OCC(=O)Nc2ccc(-c3nnc(-c4ccco4)o3)cc2)cc1 [MLS000039074] | > 50
NS(=O)(=O)c1cc2c(cc1Cl)N=CNS2(=O)=O [MLS000028398] | > 50
COc1ccc(S(=O)(=O)n2nc(OC(=O)c3ccccc3)cc2N)cc1 [Benzoic acid 5-amino-1-(4-methoxy-benzenesulfonyl)-1H-pyrazol-3-yl ester] | 0.105
O=C(c1cc2ccccc2oc1=O)N1CCN(c2ccc(N3CCOCC3)nn2)CC1 [3-[4-(6-morpholin-4-ylpyridazin-3-yl)piperazin-1-yl]carbonylchromen-2-one] | > 50
CN1C(=O)N(CN2CCCCC2)C2C1N(C)C(=O)N2CN1CCCCC1 (configuration not stated) [1,6-dimethyl-3,4-bis(1-piperidinylmethyl)-3a,6a-dihydroimidazo[4,5-d]imidazole-2,5-dione] | > 50
CCn1c(SCC(=O)Nc2ccc3c(c2)c2ccccc2n3CC)nnc1-c1ccco1 [MLS000050867] | 47.7
O=C(c1ccco1)N(CCCN1CCOCC1)c1nc(-c2ccc(Cl)cc2)cs1 [Furan-2-carboxylic acid [4-(4-chloro-phenyl)-thiazol-2-yl]-(3-morpholin-4-yl-propyl)-amide] | > 50
Cc1oc2c(CN(C)C)c(O)ccc2c(=O)c1-c1ccc2ccccc2n1 [8-[(dimethylamino)methyl]-2-methyl-7-oxidanyl-3-quinolin-2-yl-chromen-4-one] | > 50
CCN(CC(=O)NC(C)C)C(=O)CCNC(=O)c1ccc(Cl)cc1 [4-chloranyl-N-[3-[ethyl-[2-oxidanylidene-2-(propan-2-ylamino)ethyl]amino]-3-oxidanylidene-propyl]benzamide] | > 50
OC(CNCCCN1CCCCC1)COc1ccccc1 (configuration not stated) [1-phenoxy-3-(3-piperidin-1-ylpropylamino)propan-2-ol;hydrochloride] | > 50
CCCC(CCC)C(=O)OC1C[C@H]2CC[C@@H](C1)[N+]2(C)C (some centres not stated) [ANISOTROPINE METHYLBROMIDE] | > 50
CCc1nc(N)c(C#N)c(-c2cccn2C)c1C [2-amino-6-ethyl-5-methyl-4-(1-methylpyrrol-2-yl)pyridine-3-carbonitrile] | > 50
O=C1NC(=O)C(c2ccccc2)(c2ccccc2)N1 [5,5-DIPHENYLHYDANTOIN SODIUM SALT] | > 50
CCc1cccc2c(C#N)cn(CC(=O)NCc3ccco3)c12 [2-(3-cyano-7-ethyl-1-indolyl)-N-(2-furanylmethyl)acetamide] | > 50
O=C(c1cccs1)N1CCN(C(=O)c2ccco2)c2ccccc2C1 [1-(2-furoyl)-4-(thien-2-ylcarbonyl)-2,3,4,5-tetrahydro-1H-1,4-benzodiazepine] | > 50
COc1ccc(S(=O)(=O)n2nc(OC(=O)c3ccccc3Br)cc2N)cc1 [2-bromobenzoic acid [5-amino-1-(4-methoxyphenyl)sulfonyl-3-pyrazolyl] ester] | 0.297
Cc1cccn2c(=O)c(/C=N/Cc3ccco3)c(Nc3ccc(Cl)cc3)nc12 [2-(4-chloroanilino)-3-(2-furanylmethyliminomethyl)-9-methyl-4-pyrido[1,2-a]pyrimidinone] | > 50
CNC(=O)c1nnc(Cc2ccc(F)cc2)o1 [5-(4-fluorobenzyl)-N-methyl-1,3,4-oxadiazole-2-carboxamide] | > 50
Brc1cccc(-c2cnc3n2CCCCC3)c1 [3-(3-bromophenyl)-6,7,8,9-tetrahydro-5H-imidaz[1,2-a]azepine;hydrochloride] | > 50
COc1ccc(S(=O)(=O)n2nc(OC(=O)c3cccs3)cc2N)cc1 [2-thiophenecarboxylic acid [5-amino-1-(4-methoxyphenyl)sulfonyl-3-pyrazolyl] ester] | 0.11
Nc1cc(OC(=O)c2cccs2)nn1S(=O)(=O)c1ccccc1 [SMR000021562] | 2.38
CCN(CC)CCNC(=O)c1ccc(N)cc1 [4-amino-N-[2-(diethylamino)ethyl]benzamide;hydrochloride] | > 50
OC[C@H]1O[C@@H](n2cnc3c(NC4CCCC4)ncnc32)[C@H](O)[C@@H]1O | > 50
CCOC(=O)C1=C[C@]2(CC)CCCN3CCc4c(n1c1ccccc41)[C@@H]32 | > 50
COc1ccc(C2C3=C(CC(C)(C)CC3=O)Oc3ncn4nc(-c5cccnc5)nc4c32)cc1OC (configuration not stated) [MLS000040750] | > 50
CCOC(=O)N1CCN(C2=CC(=O)OC23CCCCC3)CC1 [4-(2-Oxo-1-oxa-spiro[4.5]dec-3-en-4-yl)-piperazine-1-carboxylic acid ethyl ester] | > 50
